Where two headings read alike, the source gives them in different places.
How the values were obtained:
[1] = test system: phosphorylation of pRb at the Ser780 site in JeKo-1 mantle cell lymphoma cells; experiment: CDK4 cellular assay: ELISA of pRb phosphorylation at Ser780 in JeKo-1 cells; format: cell-based
CDK4/cyclin D1 = CDK4/cyclin D1 (Homo sapiens (Human), UniProt P11802); experiment: CDK4/cyclin D1 enzymatic activity assay (TR-FRET, phosphorylation of pRb at Ser780); format: biochemical; conditions: 0.3 nM CDK4/cyclin D1, 150 nM biotin-pRb (773-924), 3 μM ATP, 60 min at 22° C.; read-out: Biochemical CDK4 enzyme IC50
Sequence of CDK4/cyclin D1 (P11802 whole entry): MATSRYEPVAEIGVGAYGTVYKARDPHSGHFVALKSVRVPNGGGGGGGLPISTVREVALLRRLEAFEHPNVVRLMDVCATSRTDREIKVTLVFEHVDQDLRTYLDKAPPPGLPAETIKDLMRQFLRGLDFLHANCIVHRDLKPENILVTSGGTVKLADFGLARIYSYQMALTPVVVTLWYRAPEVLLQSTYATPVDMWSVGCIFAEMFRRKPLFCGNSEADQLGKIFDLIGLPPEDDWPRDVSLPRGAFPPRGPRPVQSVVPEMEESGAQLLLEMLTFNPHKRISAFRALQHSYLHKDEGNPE
Sequence of CDK4/cyclin D1 (P24385 whole entry partner): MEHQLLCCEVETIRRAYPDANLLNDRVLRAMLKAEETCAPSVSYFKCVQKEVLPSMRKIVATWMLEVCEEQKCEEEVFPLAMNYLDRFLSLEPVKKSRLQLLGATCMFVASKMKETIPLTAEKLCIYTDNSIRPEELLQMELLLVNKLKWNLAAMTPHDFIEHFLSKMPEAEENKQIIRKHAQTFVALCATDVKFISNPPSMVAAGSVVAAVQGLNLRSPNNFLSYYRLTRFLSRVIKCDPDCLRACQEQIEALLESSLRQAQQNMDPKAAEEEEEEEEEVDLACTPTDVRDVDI
Method in brief: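 Phosphorylation at pRb Ser780, detected by TR-FRET, gave IC50s and kinetics. Enzyme: baculovirus/Sf21-expressed human CDK4/cyclin D1. ATP at 3 μM initiated the reaction; EDTA (pH 8.0) stopped it after 60 min at 22° C.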

CDK1/cyclin B = CDK1/cyclin B (Homo sapiens (Human), UniProt P06493); experiment: CDK1/cyclin B enzymatic activity assay (IMAP-FP); format: biochemical; conditions: 100 nM Tamra Histone-H1 peptide, 20 μM ATP, 120 min at room temperature, read-out: Biochemical CDK1 enzyme IC50
Sequence of CDK1/cyclin B (P06493 whole entry, species assumed): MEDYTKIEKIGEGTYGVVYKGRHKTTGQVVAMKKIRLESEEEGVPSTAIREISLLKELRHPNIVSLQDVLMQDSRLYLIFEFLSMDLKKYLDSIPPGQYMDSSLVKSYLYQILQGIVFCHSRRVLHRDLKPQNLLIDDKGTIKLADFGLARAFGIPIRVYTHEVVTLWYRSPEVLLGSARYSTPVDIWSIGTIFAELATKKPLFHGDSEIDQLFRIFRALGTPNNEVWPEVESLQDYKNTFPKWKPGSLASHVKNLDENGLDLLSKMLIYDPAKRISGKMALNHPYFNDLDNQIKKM
Sequence of CDK1/cyclin B (P14635 whole entry partner, species assumed): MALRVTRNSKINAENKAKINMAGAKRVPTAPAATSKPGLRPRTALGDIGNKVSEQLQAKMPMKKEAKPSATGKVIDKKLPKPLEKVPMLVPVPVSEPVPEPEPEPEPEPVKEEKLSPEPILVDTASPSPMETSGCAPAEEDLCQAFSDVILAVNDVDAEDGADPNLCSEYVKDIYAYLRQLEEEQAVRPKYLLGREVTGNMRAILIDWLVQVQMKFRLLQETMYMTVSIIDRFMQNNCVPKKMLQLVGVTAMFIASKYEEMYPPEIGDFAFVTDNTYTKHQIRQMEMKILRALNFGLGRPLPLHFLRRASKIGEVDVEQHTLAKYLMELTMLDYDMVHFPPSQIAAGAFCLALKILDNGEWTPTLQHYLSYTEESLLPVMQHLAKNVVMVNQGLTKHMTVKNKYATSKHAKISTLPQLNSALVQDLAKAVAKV
Description: CDK1/Cyclin B Enzymatic Activity Assay
A 384-well microtiter IMAP-FP™ (Molecular Devices Trade Mark Technology) endpoint assay was used for CDK1/cyclin B kinase activity measurements. The same assay was used for IC50 determination of small molecule inhibitors.

[2] = Homo sapiens, JeKo-1 cells, p-pRb % inhibition adjusted with total pRb levels, read-out: Normalized cellular ppRb inhibition IC50
[3] = Homo sapiens, JeKo-1 cells, p-pRb Ser780 ELISA, non-normalized, read-out: Cellular ppRb inhibition IC50
[4] = Homo sapiens, JeKo-1, JeKo-1 cells, p-pRb % inhibition adjusted with total pRb levels, read-out: Normalized cellular ppRb inhibition IC50
[5] = Homo sapiens, JeKo-1, JeKo-1 cells, p-pRb Ser780 ELISA, non-normalized, read-out: Cellular ppRb inhibition IC50

CN(C)C(=O)c1cc2cnc(Nc3ccc(N4C[C@H]5CC[C@@H](CC4=O)N5CC(F)(F)F)cn3)nc2n1C1CCCC1 [Example 144, 7-cyclopentyl-N, N-dimethyl-2-(5-((1R,6S)-4-oxo-9-(2,2,2-trifluoroethyl)-3,9-diazabicyclo[4.2.1]nonan-3-yl)pyridin-2-ylamino)-7H-pyrrolo[2,3-d]pyrimidine-6-carboxamide]
IC50 [1, 2]: 0.049 µM | IC50 [1, 3]: 0.031 µM | IC50 (CDK4/cyclin D1): 0.019 µM | IC50 (CDK1/cyclin B; […] CDK1/cyclin B): > 15 µM

CN(C)C(=O)c1cc2cnc(Nc3ccc(N4CC5(CC4=O)CC4CCC(C5)N4)cn3)nc2n1C1CCCC1 (stereo not drawn) [Example 118, 7-cyclopentyl-N,N-dimethyl-2-(5-(5′-oxo-8-azaspiro[bicyclo[3.2.1]octane-3,3′-pyrrolidine]-1′-yl)pyridin-2-ylamino)-7H-pyrrolo[2,3-d]pyrimidine-6-carboxamide]
IC50 [1, 2]: 0.047 to 0.153 µM | IC50 [1, 3]: 0.034 to 0.147 µM | IC50 (CDK4/cyclin D1): 0.005 to 0.014 µM | IC50 (CDK1/cyclin B; […] CDK1/cyclin B): > 15 µM

CNC(=O)c1cc2cnc(Nc3ccc(C(=O)N4C[C@@H]5C[C@H]4CN5)cn3)nc2n1C1CCCC1 [Example 24, 7-Cyclopentyl-2-[5-((S,S)-2,5-diaza-bicyclo[2.2.1]heptane-2-carbonyl)-pyridin-2-ylamino]-7H-pyrrolo[2,3-d]pyrimidine-6-carboxylic acid methylamide]
IC50 ([1]; JeKo-1 cells, p-pRb % inhibition adjusted with total pRb levels, read-out: Normalized cellular ppRb inhibition IC50): 0.272 µM | IC50 ([1]; JeKo-1 cells, p-pRb Ser780 ELISA, non-normalized, read-out: Cellular ppRb inhibition IC50): 0.266 µM | IC50 (CDK4/cyclin D1): 0.049 µM | IC50 (CDK1/cyclin B; […] CDK1/cyclin B): > 15 µM

CN(C)C(=O)c1cc2cnc(Nc3ccc(N4CCCC5(CCNCC5)C4=O)cn3)nc2n1C1CCCC1 [Example 114, 7-Cyclopentyl-2-[5-(1-oxo-2,9-diaza-spiro[5,5]undec-2-yl)-pyridin-2-ylamino]-7H-pyrrolo[2,3-d]pyrimidine-6-carboxylic acid dimethylamide]
IC50 ([1]; Homo sapiens, JeKo-1, read-out: Cellular ppRb inhibition IC50): 1.35 µM | IC50 ([1]; Homo sapiens, JeKo-1, read-out: Normalized cellular ppRb inhibition IC50): 7.1 µM | IC50 (CDK4/cyclin D1): 0.19 µM | IC50 (CDK1/cyclin B; 0.25 nM CDK1/cyclin B): > 15 µM

CN1CCCC2(C1)CN(c1ccc(Nc3ncc4cc(C(=O)N(C)C)n(C5CCCC5)c4n3)nc1)C(=O)O2 (stereo not drawn) [Example 108, 7-cyclopentyl-N,N-dimethyl-2-(5-(7-methyl-2-oxo-1-oxa-3,7-diazaspiro[4.5]decan-3-yl)pyridin-2-ylamino)-7H-pyrrolo[2,3-d]pyrimidine-6-carboxamide]
IC50 [1, 4]: 0.069 µM | IC50 [1, 5]: 0.061 µM | IC50 (CDK4/cyclin D1): 0.013 µM | IC50 (CDK1/cyclin B; […] CDK1/cyclin B): > 15 µM

CN(C)C(=O)c1cc2cnc(Nc3ccc(C(=O)N4CC5COCC(C4)N5)cn3)nc2n1C1CCCC1 [Example 70, 7-Cyclopentyl-2-[5-(3-oxa-7,9-diaza-bicyclo[3.3.1]nonane-7-carbonyl)-pyridin-2-ylamino]-7H-pyrrolo[2,3-d]pyrimidine-6-carboxylic acid dimethylamide]
IC50 [1, 2]: 0.18 µM | IC50 [1, 3]: 0.117 µM | IC50 (CDK4/cyclin D1): 0.039 µM | IC50 (CDK1/cyclin B; […] CDK1/cyclin B): > 15 µM

CN(C)C(=O)c1cc2cnc(Nc3ccc(C(=O)N4C[C@H]5CNC[C@@H](C4)C5O)cn3)nc2n1C1CCCCCC1 (stereo partly drawn) [Example 2, 7-cycloheptyl-2-(5-((1R,5S)-9-hydroxy-3,7-diazabicyclo[3.3.1]nonane-3-carbonyl)pyridin-2-ylamino)-N,N-dimethyl-7H-pyrrolo[2,3-d]pyrimidine-6-carboxamide]
IC50 [1, 4]: 0.084 µM | IC50 [1, 5]: 0.066 µM | IC50 (CDK4/cyclin D1): 0.005 µM | IC50 (CDK1/cyclin B; […] CDK1/cyclin B): > 15 µM

CC(=O)N1[C@@H]2CC[C@H]1CN(c1ccc(Nc3ncc4cc(C(=O)N(C)C)n(C5CCCC5)c4n3)nc1)C(=O)C2 [Example 139, 2-(5-((1S,6R)-9-acetyl-4-oxo-3,9-diazabicyclo[4.2.1]nonan-3-yl)pyridin-2-ylamino)-7-cyclopentyl-N,N-dimethyl-7H-pyrrolo[2,3-d]pyrimidine-6-carboxamide]
IC50 [1, 4]: 0.638 µM | IC50 [1, 5]: 0.605 µM | IC50 (CDK4/cyclin D1): 0.114 µM | IC50 (CDK1/cyclin B; […] CDK1/cyclin B): > 15 µM

CN(C)C(=O)c1cc2cnc(Nc3ccc(N4C[C@H]5CC[C@@H](CC4=O)N5)cn3)nc2n1C1CCCCC1 [Example 133, 7-Cyclohexyl-2-[5-((1R,6S)-4-oxo-3,9-diaza-bicyclo[4.2.1]non-3-yl)-pyridin-2-ylamino]-7H-pyrrolo[2,3-d]pyrimidine-6-carboxylic acid dimethylamide]
IC50 [1, 4]: 0.007 µM | IC50 [1, 5]: 0.005 µM | IC50 (CDK4/cyclin D1): < 0.005 µM | IC50 (CDK1/cyclin B; […] CDK1/cyclin B): 13.3 µM
